Results taken from patent publication US5001121A, “Cephalosporin compounds and pharmaceutical compositions thereof” (Mochida Pharmaceutical Co., Ltd., priority 1985, dated 1991).
In brackets after ≈: the same amount, converted by molar mass.

Key:
[1] = tested on: Staphylococcus aureus 242 (methicillin-resistant strain); assay: Protection ability against systemic infection; format: in vivo, ICR mice; conditions: in Mus musculus, iv, 168 h, Table 2-a, i.p. infection, i.v. compound 1 hour later, survival at 1 week, read-out: ED50
Experimental: (§1) Protection ability against systemic infection was determined as follows. An aqueous suspension of test bacteria was intraperitoneally injected into 10 four week old ICR mice. One hour after the infection, test compounds were intravenously administered. The number of surviving mice was counted 1 week after injection to determine the dose at which 50% of the test animals were alive (ED50 :mg/kg).

[2] = LD50, Probit method; conditions: in vivo, iv
Experimental: Next, LD50 of representative examples of the compounds of the present invention is shown in Table 3 wherein LD50 was determined in accordance with the Probit method.

[3] = tested on: Klebsiella pneumoniae IFO3317; assay: Antibacterial activity in vitro, agar plate dilution method (MIC); format: cell-based; conditions: Mueller Hinton agar, 10^6 cells/ml, 37° C., 20 hours
Experimental: (§2) Antibacterial activity in vitro was determined in accordance with the agar plate dilution method. A platinum loop each of test bacteria (10^6 cells/ml), cultured in Mueller Hinton broth, was inoculated on Mueller Hinton agar plates which contained test compounds at various concentrations. After cultivating at 37° C. for 20 hours, the minimum inhibitory concentration (MIC μg/ml) was determined.

[4] = tested on: Pseudomonas aeruginosa IFO3445; assay: as above; format: cell-based; conditions: Mueller Hinton agar, 10^6 cells/ml, 37° C., 20 hours
Experimental: as §2

[5] = tested on: Staphylococcus aureus Smith; assay: as above; format: cell-based; conditions: Mueller Hinton agar, 10^6 cells/ml, 37° C., 20 hours
Experimental: as §2

[6] = tested on: Serratia marcescens IFO3759; assay: as above; format: cell-based; conditions: Mueller Hinton agar, 10^6 cells/ml, 37° C., 20 hours
Experimental: as §2

[7] = tested on: Escherichia coli 67; assay: as above; format: cell-based; conditions: Mueller Hinton agar, 10^6 cells/ml, 37° C., 20 hours
Experimental: as §2

[8] = tested on: Serratia marcescens 274; assay: Protection ability against systemic infection; format: in vivo, ICR mice; conditions: in Mus musculus, iv, 168 h, Table 2-b, i.p. infection, i.v. compound 1 hour later, survival at 1 week, read-out: ED50
Experimental: as §1

Row | Compound | ED50 [1] [mg/kg] | LD50 [2] [mg/kg] | MIC [3] [µg/mL] | MIC [4] [µg/mL] | MIC [5] [µg/mL] | MIC [6] [µg/mL] | MIC [7] [µg/mL] | ED50 [8] [mg/kg]
1 | Cn1nnnc1SCC1=C(C(=O)O)N2C(=O)[C@@H](NC(=O)[C@H](O)c3ccccc3)[C@H]2SC1 [CMD, Cefamandole, reference compound] | 31 | – | – | – | – | – | – | –
2 | Cc1cc(SCC2=C(C(=O)O)N3C(=O)[C@@H](NC(=O)/C(=N\OC(=O)c4cc(O)c(O)c(O)c4)c4csc(N)n4)[C@H]3SC2)n2nc(C(=O)O)nc2n1 [Compound 1, (6R,7R)-7-[2-(2-amino-4-thiazolyl)-2-[Z-(3,4,5-trihydroxybenzoyl)oxyimino]acetamido]-3-[(2-carboxy-5-methyl-s-triazolo[l,5-a]-pyrimidin-7-yl)thiomethyl]-8-oxo-5-thia-l-azabicyclo [4.2.0]oct-2-ene-2-carboxylic acid] | – | > 1000 | < 0.05 | 3.13 (≈ 4.21 µM) | 0.78 (≈ 1.05 µM) | < 0.05 | < 0.05 | –
3 | Cc1cc(=O)n2nc(SCC3=C(C(=O)O)N4C(=O)[C@@H](NC(=O)/C(=N\OC(=O)c5cc(O)c(O)cc5C)c5csc(N)n5)[C@H]4SC3)sc2n1 [Compound 4] | – | > 1000 | < 0.05 | 3.13 (≈ 4.28 µM) | 0.39 (≈ 0.534 µM) | < 0.05 | 0.78 (≈ 1.07 µM) | –
4 | CC(=O)Oc1cc(C(=O)O)c(CO/N=C(\C(=O)N[C@@H]2C(=O)N3C(C(=O)O)=C(CSc4cc(C)nc5nc(C(=O)O)nn45)CS[C@H]23)c2csc(N)n2)cc1O [Compound 5, (6R,7R)-7-[2-(2-amino-4-thiazolyl)-2-[Z-[(4-acetoxy-2-carboxy-5-hydroxyphenyl)-methyl]oxyimino]acetamido]-3-[(2-carboxy-5-methyl-s-triazolo-[1,5-a]pyrimidin-7-yl)thiomethyl]-8-oxo-5-thia-1-azabicyclo[4.2.0]oct-2-ene-2-carboxylic acid] | – | – | < 0.05 | 0.2 (≈ 0.25 µM) | 1.56 (≈ 1.95 µM) | < 0.05 | < 0.05 | –
5 | Cc1cc(SCC2=C(C(=O)O)N3C(=O)[C@@H](NC(=O)/C(=N\OC(C)(C)C(=O)c4ccc(O)c(O)c4)c4csc(N)n4)[C@H]3SC2)n2nc(C(=O)O)nc2n1 [Compound 6, (6R,7R)-7-[2-(2-amino-4-thiazolyl)-2-[Z-[1-(3,4-dihydroxybenzoyl)-1-methylethyl]oxyimino]acetamido]-3-[(2-carboxy-5-methyl-s-triazolo-[1,5-a]pyrimidin-7-yl)thiomethyl]-8-oxo-5-thia-1-azabicyclo[4.2.0]oct-2-ene-2-carboxylicacid] | – | > 1000 | < 0.05 | 0.78 (≈ 1.01 µM) | 6.25 (≈ 8.12 µM) | < 0.05 | < 0.05 | –
6 | CC(=O)Oc1ccc([C@H](O/N=C(\C(=O)N[C@@H]2C(=O)N3C(C(=O)O)=C(CSc4cc(C)nc5nc(C(=O)O)nn45)CS[C@H]23)c2csc(N)n2)C(=O)O)cc1OC(C)=O [Compound 7, (6R,7R)-7-[2-(2-amino-4-thiazolyl)-2-[Z-[(S)-carboxy(3,4-diacetoxyphenyl)methyl]oxyimino]acetamido]-3-[(2-carboxy-5-methyl-s-triazolo-[1,5-a]pyrimidin-7-yl)thiomethyl]-8-oxo-5-thia-1-azabicyclo[4.2.0]oct-2-ene-2-carboxylic acid] | – | – | < 0.05 | 1.56 (≈ 1.85 µM) | – | 0.1 (≈ 0.119 µM) | 0.2 (≈ 0.238 µM) | –
7 | CC(=O)Oc1ccc([C@@H](O/N=C(\C(=O)N[C@@H]2C(=O)N3C(C(=O)O)=C(CSc4cc(C)nc5nc(C(=O)O)nn45)CS[C@H]23)c2csc(N)n2)C(=O)O)cc1OC(C)=O [Compound 8, (6R,7R)-7-[2-(2-amino-4-thiazolyl)-2-[Z-[(R)-carboxy(3,4-diacetoxyphenyl)-methyl]oxyimino]acetamido]-3-[(2-carboxy-5-methyl-s-triazolo[l,5-a]pyrimidin-7-yl)thiomethyl]-8-oxo-5-thia-1-azabicyclo [4.2.0]oct-2-ene-2-carboxyl-acid] | – | – | < 0.05 | 3.13 (≈ 3.72 µM) | – | 0.1 (≈ 0.119 µM) | 0.2 (≈ 0.238 µM) | 10.5
8 | Cc1cc(SCC2=C(C(=O)O)N3C(=O)[C@@H](NC(=O)/C(=N\O[C@@H](C(=O)O)c4ccc(O)c(O)c4)c4csc(N)n4)[C@H]3SC2)n2nc(C(=O)O)nc2n1 [Compound 10, (6R,7R)-7-[2-(2-amino-4-thiazolyl)-2-[Z-[(R)-carboxy(3,4-dihydroxyphenyl)-methyl]oxyimino]acetamido]-3-[(2-carboxy-5-methyl-s-triazolo[1,5-a]pyrimidin-7-yl)thiomethyl]-8-oxo-5-thia-1-azabicyclo[4.2.0]oct-2-ene-2-carboxylic acid] | – | – | < 0.05 | 6.25 (≈ 8.25 µM) | 0.78 (≈ 1.03 µM) | 0.1 (≈ 0.132 µM) | 0.2 (≈ 0.264 µM) | 28.6
9 | Cc1cc(SCC2=C(C(=O)O)N3C(=O)[C@@H](NC(=O)/C(=N\OC(C)(C(=O)O)c4ccc(O)c(O)c4)c4csc(N)n4)[C@H]3SC2)n2nc(C(=O)O)nc2n1 (stereo partly drawn) [Compound 11, (6R,7R)-7-[2-(2-amino-4-thiazolyl)-2-[Z-[1-carboxy-1-(3,4-dihydroxyphenyl)ethyl]oxyimino]acetamido]-3-[(2-carboxy-5-methyl-s-triazolo[1,5-a]pyrimidin-7-yl)thiomethyl]-8-oxo-5-thia-1-azabicyclo[4.2.0]oct-2-ene-2-carboxylic acid] | – | – | < 0.05 | 0.78 (≈ 1.01 µM) | 0.78 (≈ 1.01 µM) | 0.2 (≈ 0.259 µM) | < 0.05 | –
10 | Cc1cc(SCC2=C(C(=O)O)N3C(=O)[C@@H](NC(=O)/C(=N\OC(C(=O)O)c4cc(O)c(O)c(O)c4)c4csc(N)n4)[C@H]3SC2)n2nc(C(=O)O)nc2n1 (stereo partly drawn) [Compound 12, (6R,7R)-7-[2-(2-amino-4-thiazolyl)-2-[Z-[carboxy(3,4,5-trihydroxyphenyl)-methyl]oxyimino]acetamido]-3-[(2-carboxy-5-methyl-s-triazolo[l,5-a]pyrimidin-7-yl)thiomethyl]-8-oxo-5-thia-l-azabicyclo [4 2.0]oct-2-ene-2-carboxylic acid] | – | – | < 0.05 | 6.25 (≈ 8.08 µM) | 0.78 (≈ 1.01 µM) | – | 1.1 (≈ 1.42 µM) | –
11 | Nc1nc(/C(=N/OC(C(=O)O)c2ccc(O)c(O)c2)C(=O)N[C@@H]2C(=O)N3C(C(=O)O)=C(CSc4cc(C(=O)O)c5nnnn5n4)CS[C@H]23)cs1 (stereo partly drawn) [Compound 13, (6R,7R)-7-[2-(2-amino-4-thiazolyl)-2-[Z-[carboxy(3,4-dihydroxyphenyl)methyl]oxyimino]acetamido]-3-[(8-carboxytetrazolo [1,5-b]pyridazin-6-yl)thiomethyl]-8-oxo-5-thia-1-azabicyclo[4.2.0]oct-2-ene-2-carboxylic acid] | – | > 1000 | < 0.05 | 0.78 (≈ 1.05 µM) | 1.56 (≈ 2.09 µM) | 0.2 (≈ 0.269 µM) | 0.2 (≈ 0.269 µM) | 1.05
12 | Nc1nc(/C(=N/OC(C(=O)O)c2ccc(O)c(O)c2)C(=O)N[C@@H]2C(=O)N3C(C(=O)[O-])=C(C[n+]4ccccc4)CS[C@H]23)cs1 (stereo partly drawn) [Compound 14, (6R,7R)-7-[2-(2-amino-4-thiazolyl)-2-[Z-[carboxy(3 4-dihydroxyphenyl)methyl]-oxyimino]acetamido]-3-(pyridiniummethyl)-8-oxo-5-thia-l-azabicyclo[4.2.0]oct-2-ene-2-carboxylate] | – | – | 0.1 (≈ 0.16 µM) | 1.56 (≈ 2.49 µM) | 0.78 (≈ 1.24 µM) | 0.39 (≈ 0.622 µM) | 0.39 (≈ 0.622 µM) | –
13 | Nc1nc(/C(=N/O[C@H](C(=O)O)c2ccc(O)c(O)c2)C(=O)N[C@@H]2C(=O)N3C(C(=O)[O-])=C(C[n+]4ccccc4)CS[C@H]23)cs1 [Compound 15, (6R,7R)-7-[2-(2-amino-4-thiazolyl)-2-[Z-[(S)-carboxy(3,4-dihydroxyphenyl)methyl]oxyimino]acetamido]-3-(pyridiniummethyl)-8-oxo-5-thia-1-azabicyclo[4.2.0]oct-2-ene-2-carboxylate] | – | > 1000 | < 0.05 | 0.39 (≈ 0.622 µM) | 0.78 (≈ 1.24 µM) | 0.1 (≈ 0.16 µM) | 0.1 (≈ 0.16 µM) | –
14 | Nc1nc(/C(=N/O[C@H](C(=O)O)c2ccc(O)c(O)c2)C(=O)N[C@@H]2C(=O)N3C(C(=O)[O-])=C(C[n+]4cccc5c4CCC5)CS[C@H]23)cs1 [Compound 16, (6R,7R)-7-[2-(2-amino-4-thiazolyl)-2-[Z-[(S)-carboxy(3,4-dihydroxyphenyl)methyl]oxyimino]acetamido]-3-(2,3-cyclopentenopyridiniummethyl)-8-oxo-5-thia-1-azabicyclo [4.2.0]oct-2-ene-2-carboxylate] | – | > 1000 | < 0.05 | 0.39 (≈ 0.585 µM) | 0.78 (≈ 1.17 µM) | 0.1 (≈ 0.15 µM) | 0.1 (≈ 0.15 µM) | –
15 | Cc1cc(SCC2=C(C(=O)O)N3C(=O)[C@@H](NC(=O)C(NC(=O)c4ccc(O)c(O)c4)c4csc(N)n4)[C@H]3SC2)n2nc(C(=O)O)nc2n1 (stereo partly drawn) [Compound 17, (6R,7R)-7-[2-(2-amino-4-thiazolyl)-2-(3,4-dihydroxybenzoylamino)acetamido]-3-[(2-carboxy-5-methyl-s-triazolo [1,5-a]pyrimidin-7-yl)thiomethyl]-8-oxo-5-thia-1-azabicyclo[4.2.0]oct-2-ene-2-carboxylic acid] | – | – | < 0.05 | 1.56 (≈ 2.19 µM) | 3.13 (≈ 4.39 µM) | < 0.05 | < 0.05 | –
